Data as given in PubChem BioAssay AID1963979 (Molecular Pharmacology Branch, DTP, NCI, 2024).

Tested on: 361931-004-R-J1-PDC multicell spheroid viability
Assay: Anticancer human tumor 361931-004-R-J1-PDC patient-derived colon adenocarcinoma cell line growth inhibition [PI3K]
Details: for IC50: curve of first compound; for viability, T/C: stronger effect = lower value; active = viability on the fitted dose curve at most 10% of control; inactive = the rest
Procedure, shortened: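 Complex 3D spheroids (cancer cells + endothelial HUVEC + mesenchymal stem cells); drug pairs of targeted agent x inavolisib/alpelisib/duvelisib/copanlisib; half-log series from ~Cmax, max 10 microM if Cmax unknown; endpoint viability.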

[1] = second compound 0.0316 µM, first compound 0.0316 µM
[2] = second compound 0.0316 µM, first compound 0.1 µM
[3] = second compound 0.0316 µM, first compound 0.316 µM
[4] = second compound 0.0316 µM, first compound 1 µM
[5] = second compound 0.0316 µM, first compound 3.16 µM
[6] = second compound 0.0316 µM, first compound 10 µM
[7] = second compound 0.1 µM, first compound 0.0316 µM
[8] = second compound 0.1 µM, first compound 0.1 µM
[9] = second compound 0.1 µM, first compound 0.316 µM
[10] = second compound 0.1 µM, first compound 1 µM
[11] = second compound 0.1 µM, first compound 3.16 µM
[12] = second compound 0.1 µM, first compound 10 µM
[13] = second compound 0.316 µM, first compound 0.0316 µM
[14] = second compound 0.316 µM, first compound 0.1 µM
[15] = second compound 0.316 µM, first compound 0.316 µM
[16] = second compound 0.316 µM, first compound 1 µM
[17] = second compound 0.316 µM, first compound 3.16 µM
[18] = second compound 0.316 µM, first compound 10 µM
[19] = second compound 1 µM, first compound 0.0316 µM
[20] = second compound 1 µM, first compound 0.1 µM
[21] = second compound 1 µM, first compound 0.316 µM
[22] = second compound 1 µM, first compound 1 µM
[23] = second compound 1 µM, first compound 3.16 µM
[24] = second compound 1 µM, first compound 10 µM
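Also: spheroids exposed to agents for seven days before readout.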

CC(C)NCC(C(=O)N1CCN(c2ncnc3c2C(C)CC3O)CC1)c1ccc(Cl)cc1 (centres undefined) + CC(Nc1ccc2c(c1)OCCn1cc(N3C(=O)OCC3C(F)F)nc1-2)C(N)=O
inactive: viability, T/C (second compound 0.00316 µM, first compound 0.0316 µM) 93.3% | viability, T/C (second compound 0.00316 µM, first compound 0.1 µM) 99% | viability, T/C (second compound 0.00316 µM, first compound 0.316 µM) 78.1% | viability, T/C (second compound 0.00316 µM, first compound 1 µM) 55.2% | viability, T/C (second compound 0.00316 µM, first compound 3.16 µM) 31.6% | viability, T/C (second compound 0.00316 µM, first compound 10 µM) 18.9% | viability, T/C (second compound 0.01 µM, first compound 0.0316 µM) 105% | viability, T/C (second compound 0.01 µM, first compound 0.1 µM) 92.9% | viability, T/C (second compound 0.01 µM, first compound 0.316 µM) 75.9% | viability, T/C (second compound 0.01 µM, first compound 1 µM) 55.3% | viability, T/C (second compound 0.01 µM, first compound 3.16 µM) 31.8% | viability, T/C (second compound 0.01 µM, first compound 10 µM) 19.9% | viability, T/C [1] 97.9% | viability, T/C [2] 96.6% | viability, T/C [3] 76% | viability, T/C [4] 46.4% | viability, T/C [5] 30.2% | viability, T/C [6] 18.8% | viability, T/C [7] 101% | viability, T/C [8] 95% | viability, T/C [9] 71.2% | viability, T/C [10] 50.9% | viability, T/C [11] 41.8% | viability, T/C [12] 18.3% | viability, T/C [13] 90.5% | viability, T/C [14] 77.4% | viability, T/C [15] 74% | viability, T/C [16] 51.2% | viability, T/C [17] 28.6% | viability, T/C [18] 20.7% | viability, T/C [19] 72.3% | viability, T/C [20] 71.1% | viability, T/C [21] 68.9% | viability, T/C [22] 51.7% | viability, T/C [23] 25.3% | viability, T/C [24] 15.3%
1090 nM: IC50 (second compound 1 µM)
906 nM: IC50 (second compound 0.0316 µM)
1240 nM: IC50 (second compound 0.01 µM)
1360 nM: IC50 (second compound 0.1 µM)
1270 nM: IC50 (second compound 0.00316 µM)
1040 nM: IC50 (second compound 0.316 µM)

C[C@@H](NC(=O)c1ncnc(N)c1Cl)c1ncc(C(=O)Nc2cc(C(F)(F)F)c(Cl)cn2)s1 + Cc1nc(NC(=O)N2CCCC2C(N)=O)sc1-c1ccnc(C(C)(C)C(F)(F)F)c1
4930 nM: IC50 (second compound 3.16 µM)
active: viability, T/C (second compound 10 µM, first compound 10 µM) 3.55%
410 nM: IC50 (second compound 10 µM)
inactive: viability, T/C [1] 104% | viability, T/C [2] 106% | viability, T/C [3] 80.8% | viability, T/C [4] 97.3% | viability, T/C [5] 92.9% | viability, T/C [6] 85.5% | viability, T/C [7] 110% | viability, T/C [8] 104% | viability, T/C [9] 89.1% | viability, T/C [10] 106% | viability, T/C [11] 92.9% | viability, T/C [12] 80.5% | viability, T/C [13] 102% | viability, T/C [14] 100% | viability, T/C [15] 99.3% | viability, T/C [16] 89% | viability, T/C [17] 101% | viability, T/C [18] 78% | viability, T/C [19] 104% | viability, T/C [20] 95.8% | viability, T/C [21] 93.3% | viability, T/C [22] 88.8% | viability, T/C [23] 84.2% | viability, T/C [24] 60.9% | viability, T/C (second compound 3.16 µM, first compound 0.0316 µM) 89.9% | viability, T/C (second compound 3.16 µM, first compound 0.1 µM) 84.8% | viability, T/C (second compound 3.16 µM, first compound 0.316 µM) 76.1% | viability, T/C (second compound 3.16 µM, first compound 1 µM) 70.4% | viability, T/C (second compound 3.16 µM, first compound 3.16 µM) 67.1% | viability, T/C (second compound 3.16 µM, first compound 10 µM) 31% | viability, T/C (second compound 10 µM, first compound 0.0316 µM) 77.8% | viability, T/C (second compound 10 µM, first compound 0.1 µM) 59% | viability, T/C (second compound 10 µM, first compound 0.316 µM) 55.6% | viability, T/C (second compound 10 µM, first compound 1 µM) 41.7% | viability, T/C (second compound 10 µM, first compound 3.16 µM) 22%
> 10000 nM: IC50 (second compound 0.0316 µM) | IC50 (second compound 0.1 µM) | IC50 (second compound 0.316 µM) | IC50 (second compound 1 µM)
